Assay results: paper PMC8025677 (Cell, 2020)
Where two headings read alike, the source gives them in different places.

Experiments:
[1] = biological target: iAChSnFR (early version; iAChSnFR0.6 in Figure S2A); settings: n = 3
hSERT = hSERT (Homo sapiens, UniProt P31645); assay: oscillating stimulus transporter assay; assay type: cell-based
iSeroSnFR = assay type: binding, Thermoanaerobacter sp. X513; settings: for Kd: read-out: apparent Kd, pH 7.4
[2] = test system: electrically evoked 5-HT release in dorsal striatum slices; parameters: species or system mouse

Chain of hSERT (P31645 whole entry): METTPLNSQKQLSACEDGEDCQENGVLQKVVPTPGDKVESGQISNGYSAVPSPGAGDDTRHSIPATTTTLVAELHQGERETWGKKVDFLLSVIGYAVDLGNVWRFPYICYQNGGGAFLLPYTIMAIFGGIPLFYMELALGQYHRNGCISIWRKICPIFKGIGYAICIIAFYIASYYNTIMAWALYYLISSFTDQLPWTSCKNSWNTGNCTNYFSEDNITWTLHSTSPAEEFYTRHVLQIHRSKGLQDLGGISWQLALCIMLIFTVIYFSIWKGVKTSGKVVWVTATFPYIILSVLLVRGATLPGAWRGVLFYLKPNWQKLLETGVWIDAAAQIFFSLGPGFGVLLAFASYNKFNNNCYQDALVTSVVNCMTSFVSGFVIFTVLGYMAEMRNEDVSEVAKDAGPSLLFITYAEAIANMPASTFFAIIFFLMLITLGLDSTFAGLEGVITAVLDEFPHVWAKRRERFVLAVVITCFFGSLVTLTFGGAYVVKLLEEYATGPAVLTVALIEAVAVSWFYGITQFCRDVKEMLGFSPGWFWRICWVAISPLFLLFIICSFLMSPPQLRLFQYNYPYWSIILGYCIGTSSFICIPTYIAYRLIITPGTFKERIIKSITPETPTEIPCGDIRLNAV

Compound: NCCc1c[nH]c2ccc(O)cc12 [5-HT, serotonin (5-hydroxytryptamine)]
- Kd [1]: > 1000 µM

Compound: CNC(C)Cc1ccc2c(c1)OCO2 (stereo not shown) [MDMA, 3,4-methyl enedioxy methamphetamine]
- enhancement in 5-HT efflux (hSERT): 2 fold

Compound: CCCCCCCCCCCCCC(=O)O[C@@H]1[C@@H](C)[C@@]2(O)[C@@H](C=C(CO)C[C@]3(O)C(=O)C(C)=C[C@@H]23)[C@@H]2C(C)(C)[C@]12OC(C)=O [PMA, phorbol 12-myristate 13-acetate]
- effect on 5-HT transport rate (hSERT; 400 nM): slow decrement in transport rate over ~40 minutes

Compound: COC(=O)[C@H]1[C@@H](OC(=O)c2ccccc2)C[C@@H]2CC[C@H]1N2C [cocaine]
- effect on 5-HT transport (hSERT): reduced

Compound: NCCc1ccc(O)c(O)c1 [dopamine]
- Kd (iSeroSnFR): 5600 µM

Compound: NC1=N[C@H](O)[C@H]2[C@H]3O[C@]4(O)O[C@@H]([C@@H](O)[C@@]2(N1)[C@@H]4O)[C@]3(O)CO [tetrodotoxin]
- effect on electrically evoked fluorescence transients [2]: completely abolished

Compound: NCCc1c[nH]c2ccccc12 [tryptamine]
- times weaker affinity than 5-HT (iSeroSnFR; purified iSeroSnFR): 8 times
- Kd (iSeroSnFR; purified iSeroSnFR 100 nM): 2400 µM

Compound: N#Cc1ccc2[nH]cc(CCCCN3CCN(c4ccc5oc(C(N)=O)cc5c4)CC3)c2c1 [vilazodone]
- effect on 5-HT transport (hSERT; concentration not given): caused transport function to rapidly disappear
- recovery of transport after washout (hSERT; washouts of >20 minutes): did not return to baseline
